Test results: ChEMBL document CHEMBL1128627, “Photoactivatable analogues of a Substance P non-peptidic antagonist, for probing the antagonist binding site of the NK1 receptor” (Bioorg Med Chem Lett, 1995)

Target: Substance-P receptor (Homo sapiens, UniProt P25103)
Test: In vitro binding affinity against human NK1 receptor expressed in CHO cells using [3H]-substance P as radioligand
Type: cell-based

Chain of Substance-P receptor (P25103 whole entry): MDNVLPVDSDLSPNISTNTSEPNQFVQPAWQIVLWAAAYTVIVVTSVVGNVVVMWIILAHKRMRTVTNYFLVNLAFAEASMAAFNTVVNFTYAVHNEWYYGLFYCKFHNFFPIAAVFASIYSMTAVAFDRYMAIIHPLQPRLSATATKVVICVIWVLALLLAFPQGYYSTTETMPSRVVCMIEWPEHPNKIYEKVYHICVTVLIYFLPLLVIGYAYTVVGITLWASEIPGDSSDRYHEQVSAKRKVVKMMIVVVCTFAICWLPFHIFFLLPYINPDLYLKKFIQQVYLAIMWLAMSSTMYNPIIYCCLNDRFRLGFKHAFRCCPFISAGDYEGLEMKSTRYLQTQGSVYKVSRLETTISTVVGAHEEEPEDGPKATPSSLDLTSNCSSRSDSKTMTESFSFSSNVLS

SMILES | Ki [nM]
COc1ccc(C(=O)c2ccccc2)cc1CN[C@H]1CCCN[C@H]1c1ccccc1 | 0.398
COc1ccc(C2(C(F)(F)F)N=N2)cc1CN[C@H]1CCCN[C@H]1c1ccccc1 | 0.794
